Assays:
Test in all cases: relative viability (nuclei count vs DMSO), 5 days (fraction); higher = more cells survive
[1] = compound: C[C@H]([C@@H](C(=O)N)NC(=O)[C@@H]1CSSC[C@@H](C(=O)N[C@H](C(=O)N[C@@H](C(=O)N[C@H](C(=O)N1)CCCCN)CC2=CNC3=CC=CC=C32)CC4=CC=C(C=C4)O)NC(=O)[C@@H](CC5=CC=CC=C5)N)O [CAP-232] + O=C(c1cc(Cc2n[nH]c(=O)c3ccccc23)ccc1F)N1CCN(C(=O)C2CC2)CC1 [Olaparib] (partner 8 µM)
How it was run: (§1)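 For relative viability, nuclei counts in treated wells were divided by those in vehicle wells. Lung cancer cell lines had been pin-tool dosed in 1536-well plates the day after seeding and cultured for 5 days, then fixed and stained in one step (final 0.05% Triton X-100, 1% formaldehyde, 1 ug/ml Hoechst) and imaged at 4×. Doses were one drug alone or a fixed anchor-drug dose plus five library-drug doses (not always all listed) in √10 steps, and values are duplicate-plate medians.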

[2] = compound: C[C@H]([C@@H](C(=O)N)NC(=O)[C@@H]1CSSC[C@@H](C(=O)N[C@H](C(=O)N[C@@H](C(=O)N[C@H](C(=O)N1)CCCCN)CC2=CNC3=CC=CC=C32)CC4=CC=C(C=C4)O)NC(=O)[C@@H](CC5=CC=CC=C5)N)O [CAP-232] + Nc1nc2[nH]cc(CCc3ccc(C(=O)N[C@@H](CCC(=O)O)C(=O)O)cc3)c2c(=O)[nH]1 [Pemetrexed] (partner 0.2 µM)
How it was run: as §1

[3] = compound: C[C@H]([C@@H](C(=O)N)NC(=O)[C@@H]1CSSC[C@@H](C(=O)N[C@H](C(=O)N[C@@H](C(=O)N[C@H](C(=O)N1)CCCCN)CC2=CNC3=CC=CC=C32)CC4=CC=C(C=C4)O)NC(=O)[C@@H](CC5=CC=CC=C5)N)O [CAP-232] + C[C@@H](Oc1cc(-c2cnn(C3CCNCC3)c2)cnc1N)c1c(Cl)ccc(F)c1Cl [Crizotinib] (partner 1 µM)
How it was run: as §1

[4] = compound: C[C@H]([C@@H](C(=O)N)NC(=O)[C@@H]1CSSC[C@@H](C(=O)N[C@H](C(=O)N[C@@H](C(=O)N[C@H](C(=O)N1)CCCCN)CC2=CNC3=CC=CC=C32)CC4=CC=C(C=C4)O)NC(=O)[C@@H](CC5=CC=CC=C5)N)O [CAP-232] + C[C@]1(O)C[C@@H](c2nc(-c3ccc4ccc(-c5ccccc5)nc4c3)c3c(N)nccn32)C1 [Linsitinib] (partner 1 µM)
How it was run: as §1

[5] = compound: C[C@H]([C@@H](C(=O)N)NC(=O)[C@@H]1CSSC[C@@H](C(=O)N[C@H](C(=O)N[C@@H](C(=O)N[C@H](C(=O)N1)CCCCN)CC2=CNC3=CC=CC=C32)CC4=CC=C(C=C4)O)NC(=O)[C@@H](CC5=CC=CC=C5)N)O [CAP-232] + CC(=O)Nc1cccc(-n2c(=O)n(C3CC3)c(=O)c3c(Nc4ccc(I)cc4F)n(C)c(=O)c(C)c32)c1 [Trametinib] (partner 0.02 µM)
How it was run: as §1

Row | Cell Line | relative viability ([1]; first compound 0.4 µM) | relative viability ([1]; first compound 1.265 µM) | relative viability ([1]; first compound 4 µM) | relative viability ([1]; first compound 12.65 µM) | relative viability ([2]; first compound 0.4 µM) | relative viability ([2]; first compound 1.265 µM) | relative viability ([2]; first compound 4 µM) | relative viability ([2]; first compound 12.65 µM) | relative viability ([3]; first compound 0.4 µM) | relative viability ([3]; first compound 1.265 µM) | relative viability ([3]; first compound 4 µM) | relative viability ([3]; first compound 12.65 µM) | relative viability ([4]; first compound 0.4 µM) | relative viability ([4]; first compound 1.265 µM) | relative viability ([4]; first compound 4 µM) | relative viability ([4]; first compound 12.65 µM) | relative viability ([5]; first compound 0.4 µM) | relative viability ([5]; first compound 1.265 µM) | relative viability ([5]; first compound 4 µM) | relative viability ([5]; first compound 12.65 µM)
1 | NCI-H2347 | 0.651 | 0.528 | 0.606 | 0.598 | 0.432 | 0.436 | 0.457 | 0.418 | 0.794 | 0.753 | 0.0086 | 0.544 | 0.989 | 0.967 | 1.04 | 1.01 | 0.34 | 0.255 | 0.256 | 0.241
2 | NCI-H2405 | 0.836 | 0.957 | 0.831 | 0.53 | 1.11 | 1.1 | 0.986 | 0.512 | 0.76 | 0.848 | 0.876 | 0.843 | 0.789 | 1.06 | 0.868 | 0.547 | 0.416 | 0.673 | 0.558 | 0.447
3 | NCI-H3122 | 0.664 | 0.656 | 0.847 | 0.546 | 0.2 | 0.226 | 0.201 | 0.194 | 0.274 | 0.313 | 0.308 | 0.277 | 0.991 | 0.979 | 1.01 | 1.08 | 0.222 | 0.194 | 0.293 | 0.24
4 | PC-3 [JPC-3] | 1.16 | 1.21 | 1.2 | 1.08 | 1.63 | 1.05 | 0.992 | 0.888 | 1.01 | 1.02 | 0.966 | 0.985 | 1.05 | 1 | 0.902 | 0.972 | 0.703 | 0.7 | 0.69 | 0.7
5 | PC-14 | 0.265 | 0.264 | 0.213 | 0.239 | 0.121 | 0.123 | 0.137 | 0.127 | 1.02 | 0.861 | 0.933 | 0.89 | 1.01 | 0.955 | 0.955 | 0.775 | 0.843 | 0.891 | 0.739 | 0.37
6 | RERF-LC-KJ | 0.98 | 0.893 | 1.03 | 0.721 | 0.499 | 0.534 | 0.441 | 0.407 | 0.944 | 0.919 | 0.851 | 0.829 | 1.01 | 0.886 | 0.933 | 0.854 | 0.927 | 0.778 | 0.784 | 0.566
7 | SK-LU-1 | 0.388 | 0.44 | 0.412 | 0.408 | 0.916 | 0.996 | 1.03 | 0.658 | 0.689 | 0.988 | 0.781 | 0.912 | 1.06 | 1.2 | 1.15 | 1.06 | 0.45 | 0.477 | 0.717 | 0.492
8 | SK-MES-1 | 0.747 | 0.718 | 0.762 | 0.607 | 1.04 | 0.95 | 0.961 | 0.608 | 0.965 | 0.909 | 0.926 | 0.931 | 1.09 | 1.14 | 1 | 1.01 | 0.543 | 0.549 | 0.541 | 0.524
9 | SW 1573 | 0.395 | 0.416 | 0.469 | 0.356 | 0.801 | 0.879 | 0.789 | 0.103 | 0.785 | 0.803 | 0.642 | 0.81 | 0.751 | 0.781 | 0.731 | 0.683 | 0.503 | 0.54 | 0.643 | 0.191
10 | UMC-11 | 0.358 | 0.339 | 0.374 | 0.248 | 0.824 | 0.843 | 0.821 | 0.613 | 0.585 | 0.786 | 0.681 | 0.639 | 1.13 | 1 | 1.14 | 1.1 | 0.65 | 0.546 | 0.719 | 0.456

— the supplement of paper PMC10307832
